Patent US11274091B2 (Dizal (Jiangsu) Pharmaceutical Co., Ltd., priority 2018, dated 2022)

The compounds below were run against human TRPC6 ion channel (Homo sapiens (Human), UniProt Q9Y210) (assay: Inhibition of TRPC6 FLIPR Assay (membrane potential dye, OAG challenge)). Conditions: TRPC6-HEK293 cells, OAG at EC80; most potent isolated isomer; mean of minimum 2 experiments.
Format: cell-based
Source text: (§1) TRPC3 and TRPC6 channel opening causes an influx of predominantly calcium and sodium cations that result in a change in the electrical potential across the cell membrane. This change in membrane potential can be monitored using membrane potential dyes in the following FLIPR™ (Fluorescent Imaging Plate Reader) assays.
TRPC6-HEK293 was purchased from PerkinElmer (PerkinElmer, Product No.: AX-012-C), HEK293 cells were transfected using the pcDNA3.1(+)expression vector containing the coding sequence of the human TRPC6 ion channel. The coding sequence used is identical to coding sequence of GenBank NM_004621 with the exception of 2 synonym variations (t1683c and c2529t). The cells were grown in DMEM+10% fetal bovine serum (FBS) 0.5 mg/ml. Geneticin (ion channel expression selection) as culture medium.
TRPC6 cells were plated at 10K cells/well into 384-well polystyrene plates and then grown for 24 hs at 37° C. plus 5% CO2. After this time the media was aspirated using a Tecan plate washer and then replaced with 40 μL of dye loading buffer (130 mM NaCl, 5 mM KCl, 0.15 mM CaCl2, 1 mM MgCl2, 20 mM HEPES ((4-(2-hydroxyethyl)-1-piperazineethanesulfonic acid)), 5 mM NaHCO3). For TRPC6, a final concentration of 0.5× is used. Cells with membrane potential dye were then incubated for 30 mins at room temperature prior to beginning the experiments.
(§2) To test the effects of compounds on TRPC6 activity, compounds were first diluted in 100% DMSO to 3× the final concentration to be used in the experiments. Typical dose-response experiments ranged from 10 μM (top concentration) to 0.5 nM (lowest concentration). Ten microliters of 0.5× compound in 0.5% DMSO were added to 40 μL of cells incubated with membrane potential dye. Compound addition was performed on a FLIPRTetra or a FLIPR 384 (MDS Analytical Technologies, Molecular Devices, Sunnyvale, Calif., 94089, USA). After a 400 second incubation with compound, 12.5 of OAG (1-oleoyl-2-acetyl-sn-glycerol (OAG), Sigma, Gillingham, Dorset, SP8 4XT Cat #O6754-10 MG) was added at 5× the EC80 (typical EC80 for TRPC6=3 μM final). The OAG challenge is designed to measure the inhibitory activity of compounds on receptor-operated TRPC6 activation.
(§3) All data was normalized to low controls (buffer alone) or high controls (OAG EC100). Data was analyzed using an XC50 curve fitting module and reported as pIC50 or IC50 values. The values are averaged to determine a mean value, for a minimum of 2 experiments.

human TRPC6 ion channel, sequence (Q9Y210 whole entry): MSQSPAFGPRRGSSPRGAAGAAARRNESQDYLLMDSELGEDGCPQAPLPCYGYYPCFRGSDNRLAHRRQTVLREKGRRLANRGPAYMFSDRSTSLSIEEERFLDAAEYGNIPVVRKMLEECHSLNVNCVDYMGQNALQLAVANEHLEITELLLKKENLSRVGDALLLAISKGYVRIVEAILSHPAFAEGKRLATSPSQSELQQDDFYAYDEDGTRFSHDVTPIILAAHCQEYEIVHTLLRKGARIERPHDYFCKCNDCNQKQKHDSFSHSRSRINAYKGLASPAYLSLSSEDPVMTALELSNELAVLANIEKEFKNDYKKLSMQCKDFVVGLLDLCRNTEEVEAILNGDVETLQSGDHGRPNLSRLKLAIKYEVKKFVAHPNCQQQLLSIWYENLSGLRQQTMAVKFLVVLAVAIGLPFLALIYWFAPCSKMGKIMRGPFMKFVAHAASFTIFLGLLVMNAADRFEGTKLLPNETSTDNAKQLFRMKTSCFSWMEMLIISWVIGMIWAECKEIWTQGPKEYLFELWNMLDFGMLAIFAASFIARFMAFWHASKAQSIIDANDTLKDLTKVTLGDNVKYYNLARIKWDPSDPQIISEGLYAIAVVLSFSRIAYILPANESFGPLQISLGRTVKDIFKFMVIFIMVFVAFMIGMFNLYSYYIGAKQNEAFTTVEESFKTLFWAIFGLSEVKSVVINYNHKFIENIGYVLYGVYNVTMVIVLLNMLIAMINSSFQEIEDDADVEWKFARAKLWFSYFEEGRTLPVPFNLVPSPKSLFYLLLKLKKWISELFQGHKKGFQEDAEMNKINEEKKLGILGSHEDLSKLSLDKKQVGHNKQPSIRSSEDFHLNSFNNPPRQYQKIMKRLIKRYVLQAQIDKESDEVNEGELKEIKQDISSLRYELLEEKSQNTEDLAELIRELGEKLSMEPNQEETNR

Row | Structure (SMILES) | IC50 [nM]
1 | NC1CCCN(C2CC(c3ccc(F)cc3)CC2Oc2cccnn2)C1 (stereo not shown) [Example 28, 1-[4-(4-fluorophenyl)-2-pyridazin-3-yloxy-cyclopentyl]piperidin-3-amine] | 17.8
2 | NC1CC(F)CN(C2CC(c3ccc(F)cc3)CC2Oc2ccncn2)C1 (stereo not shown) [Example 29, 5-fluoro-1-[4-(4-fluorophenyl)-2-pyrimidin-4-yloxy-cyclopentyl]piperidin-3-amine] | 3.44
3 | N#Cc1cnc(OC2CC(c3ccc(F)cc3)CC2N2CCCC(N)C2)nc1 (stereo not shown) [Example 30, 2-[2-(3-amino-1-piperidyl)-4-(4-fluorophenyl)cyclopentoxy]pyrimidine-5-carbonitrile] | 11.5
4 | N#Cc1cnc(OC2CC(c3ccc(F)cc3)CC2N2CCCC(N)C2)cn1 (stereo not shown) [Example 31, 5-[2-(3-amino-1-piperidyl)-4-(4-fluorophenyl)cyclopentoxy]pyrazine-2-carbonitrile] | 13.7
5 | N#Cc1ncc(OC2CC(c3ccc(F)cc3)CC2N2CCCC(N)C2)cn1 (stereo not shown) [Example 32, 5-[2-(3-amino-1-piperidyl)-4-(4-fluorophenyl)cyclopentoxy]pyrimidine-2-carbonitrile] | 10.6

What follows are compounds tested against human TRPC3 ion channel (Homo sapiens (Human), UniProt Q13507) (assay: Inhibition of TRPC3 FLIPR Assay (membrane potential dye, OAG challenge)). Conditions: TRPC3 transfected AD293 cells, OAG at EC80; most potent isolated isomer; mean of minimum 2 experiments.
Format: cell-based
Source text: as §1
AD293 cells were transfected using the PLVX-puro lentivirus vector containing the coding sequence of the human TRPC3 ion channel. Puromycin-resistant cells were selected by treating with […] puromycin for two weeks. Monoclonal cells were obtained by limiting dilution and compared for their response to OAG in a membrane potential assay. The cells were grown in DMEM+10% fetal bovine serum (FBS)+1 μg/mL puromycin as culture medium.
TRPC3 cells were plated at 9K/well into 384-well polystyrene plates. Cells were grown for 24 h at 37° C. plus 5% CO2 after which media was aspirated using a Tecan plate washer and replaced with 40 μL of dye loading buffer (130 mM NaCl, 5 mM KCl, 0.15 mM CaCl2, 1 mM MgCl2, 20 mM HEPES ((4-(2-hydroxyethyl)-1-piperazineethanesulfonic acid)), 5 mM NaHCO3). For TRPC3 a final concentration of 0.5× membrane potential dye (Molecular Devices Membrane Blue, FLIPR Membrane Potential Assay Kit (bulk), Product #R8034(BLUE), Molecular Devices, Sunnyvale, Calif., 94089, USA) was used. Cells with membrane potential dye were then incubated for 30 mins at room temperature prior to beginning the experiments.
as §2, with “TRPC3” for “TRPC6”, “5×” for “0.5×”, “Technologies).” for “Technologies, Molecular Devices, Sunnyvale, Calif., 94089, USA).”, “12.5 μL” for “12.5”, “OAG” for “OAG (1-oleoyl-2-acetyl-sn-glycerol (OAG), Sigma, Gillingham, Dorset, SP8 4XT Cat #O6754-10 MG)”, “TRPC3=2” for “TRPC6=3”
as §3

human TRPC3 ion channel, sequence (Q13507 whole entry): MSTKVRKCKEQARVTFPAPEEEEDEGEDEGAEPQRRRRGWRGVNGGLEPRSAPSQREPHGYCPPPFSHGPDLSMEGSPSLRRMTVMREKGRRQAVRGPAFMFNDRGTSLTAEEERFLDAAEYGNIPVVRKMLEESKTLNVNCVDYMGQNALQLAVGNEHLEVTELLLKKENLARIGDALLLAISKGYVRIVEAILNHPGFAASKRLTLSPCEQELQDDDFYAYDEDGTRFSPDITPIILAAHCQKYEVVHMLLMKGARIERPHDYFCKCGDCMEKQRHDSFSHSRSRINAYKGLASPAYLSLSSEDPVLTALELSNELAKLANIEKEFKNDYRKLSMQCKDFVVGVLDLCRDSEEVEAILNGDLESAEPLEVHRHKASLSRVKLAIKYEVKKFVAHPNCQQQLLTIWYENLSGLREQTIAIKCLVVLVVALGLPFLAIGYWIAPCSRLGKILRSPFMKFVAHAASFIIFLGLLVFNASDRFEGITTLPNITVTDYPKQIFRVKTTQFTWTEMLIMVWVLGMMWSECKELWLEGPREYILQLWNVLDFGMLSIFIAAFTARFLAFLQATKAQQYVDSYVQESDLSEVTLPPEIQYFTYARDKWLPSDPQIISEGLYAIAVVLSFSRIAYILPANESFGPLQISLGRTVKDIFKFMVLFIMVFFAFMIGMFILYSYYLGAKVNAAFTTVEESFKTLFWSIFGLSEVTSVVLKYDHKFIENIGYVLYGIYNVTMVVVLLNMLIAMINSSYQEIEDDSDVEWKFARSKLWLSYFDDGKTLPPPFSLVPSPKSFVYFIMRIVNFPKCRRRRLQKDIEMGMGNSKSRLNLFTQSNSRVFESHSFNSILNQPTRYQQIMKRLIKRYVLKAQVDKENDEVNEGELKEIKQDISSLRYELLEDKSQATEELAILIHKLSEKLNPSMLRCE

Row | Structure (SMILES) | IC50 [nM]
6 | NC1CCCN(C2CC(c3ccc(F)cc3)CC2Oc2cccnn2)C1 (stereo not shown) [Example 28, 1-[4-(4-fluorophenyl)-2-pyridazin-3-yloxy-cyclopentyl]piperidin-3-amine] | 32.2
7 | NC1CC(F)CN(C2CC(c3ccc(F)cc3)CC2Oc2ccncn2)C1 (stereo not shown) [Example 29, 5-fluoro-1-[4-(4-fluorophenyl)-2-pyrimidin-4-yloxy-cyclopentyl]piperidin-3-amine] | 3.68
8 | N#Cc1cnc(OC2CC(c3ccc(F)cc3)CC2N2CCCC(N)C2)nc1 (stereo not shown) [Example 30, 2-[2-(3-amino-1-piperidyl)-4-(4-fluorophenyl)cyclopentoxy]pyrimidine-5-carbonitrile] | 24
9 | N#Cc1cnc(OC2CC(c3ccc(F)cc3)CC2N2CCCC(N)C2)cn1 (stereo not shown) [Example 31, 5-[2-(3-amino-1-piperidyl)-4-(4-fluorophenyl)cyclopentoxy]pyrazine-2-carbonitrile] | 25.5
10 | N#Cc1ncc(OC2CC(c3ccc(F)cc3)CC2N2CCCC(N)C2)cn1 (stereo not shown) [Example 32, 5-[2-(3-amino-1-piperidyl)-4-(4-fluorophenyl)cyclopentoxy]pyrimidine-2-carbonitrile] | 39.2
